Data set [1] in a line: Pharmacokinetic (PK) studies in Balb/c mouse. Format: in vivo. To be noted: for AUC(0-t): read-out: AUClast; for half-life: read-out: T1/2 (converted). Here is the method: Test Example 7: Pharmacokinetic (PK) Studies in Balb/c Mouse
The compound of Example 12, Control Compound 1, Control Compound 2, and TNO-155 were administered to female Balb/c mice by intravenous injection (IV) and gavage (PO) respectively to estimate the pharmacokinetic properties. Dosing amounts for IV and PO routes were 1 mg/kg and 10 mg/kg, respectively. The solvent for IV route was 5% DMSO+5% Solutol+90% Saline, and the solvent for PO route was 0.5% MC (sodium methylcellulose). Blood was collected at various time points after IV and PO administration. The blood from the test groups of the compound of Example 12, Control Compound 1, and Control Compound 2 was anticoagulated using EDTA.K2 and preserved at −80° C. The blood from the test groups of TNO-155 was anticoagulated using EDTA.K2 and centrifuged to obtain plasma samples, and the plasma samples were preserved at −80° C.
The blood or plasma samples were subjected to protein precipitation and then to the LC-MS/MS analysis. WinNonlin 6.3 software was used to calculate the pharmacokinetic parameters by non-compartmental model, and the results were listed in Table 7 below.

Data set [2] in a line: Pharmacokinetic (PK) studies in beagle dog. Format: in vivo. To be noted: for AUC(0-t) / clearance / half-life: dog, male beagle dogs, plasma. Here is the method:
Test Example 8: Pharmacokinetic (PK) Studies in Beagle Dog
The compound of Example 12, Control Compound 1, Control Compound 2, and TNO-155 were administered to male beagle dogs by intravenous injection (IV) and gavage (PO) respectively to estimate the pharmacokinetic properties. Dosing amounts for IV and PO routes were 0.5 mg/kg and 2.5 mg/kg. The solvent for IV route was 5% DMSO+5% Solutol+90% Saline, and the solvent for PO route was 0.5% MC (sodium methylcellulose). Blood was collected at various time points after IV and PO administration. The blood was anticoagulated using EDTA.K2, and centrifuged to obtain plasma samples. The plasma samples were preserved at −80° C.
The plasma samples were subjected to protein precipitation and then to the LC-MS/MS analysis. WinNonlin 6.3 software was used to calculate the pharmacokinetic parameters by non-compartmental model, and the results were listed in Table 8 below.

In data set [3] the test system is KYSE-520 cell xenograft. The experiment in a line: Tumor inhibition in KYSE-520 xenograft model. Format: in vivo, nu-nu mice. The settings on record: for TGI (%) (calculated by the tumor volume): once-daily oral, 21 consecutive days. Here is the method:
Test Example 9: Experiment on Tumor Inhibition in KYSE-520 Xenograft Model
A CDX xenograft animal model was established by subcutaneously inoculating KYSE-520 cells in nu-nu mice. After tumor formation, the mice were orally administered once daily to evaluate the in vivo drug efficacy of different test compounds.
The KYSE-520 cells were subjected to monolayer in vitro culture. The culture conditions were as follows: 10% fetal bovine serum was added into the RPMI 1640 medium, and the cells were cultured in an incubator at 37° C. in air containing 5% CO2. The cells were digested twice a week with […] for passaging. When the cells were in exponential growth phase, the cells were harvested and counted. The KYSE-520 cell strains cultured to the logarithmic growth phase were prepared into a single cell suspension (the cells were resuspended in PBS and mixed with Matrigel Matrix Phenol Red-free at a ratio of 1:1, and the final concentration of the cells was 5×10^7/ml). Each of the nude mice was inoculated with 0.1 ml subcutaneously into the right axilla of the nude mice to establish a xenograft model of nude mice with esophageal cancer. When the tumors grew to 130 mm^3, the nude mice were randomly divided into 5 groups and administered. The dosage regime was as shown in Table 9 (once-daily oral administration for 21 consecutive days). The vehicle was 5% DMSO+5% Solutol+90% H2O.
The animals were monitored daily for health and mortality. Routine inspections included observing the influences of drug treatment on the animals' daily behaviors, such as actions and activities, food (water) intake, physical signs, or other abnormalities, and recording them accordingly.
Mice were weighed and tumor volumes were measured twice a week, and the data were recorded. The tumor volume (V) was calculated by the following equation: V=½×a×b^2, wherein a and b indicated the length and width, respectively.
(§1) The anti-tumor efficacy was evaluated by tumor growth inhibition TGI (%). […] When the tumor regressed, TGI (%) (tumor volume)=100%−(TVt−TV0)/TV0×100%.

The test system of data set [4] is NCI-H358 cell xenograft. The experiment in a line: Tumor inhibition in NCI-H358 xenograft model. Format: in vivo, Balb/c-nu mice. The settings on record: for TGI (%) (calculated by the tumor volume): oral, 21 days.
Text: Test Example 10: Experiment on Tumor Inhibition in NCI-H358 Xenograft Model
A subcutaneous xenograft mouse model was established by subcutaneously inoculating human non-small cell lung cancer cells NCI-H358 into the right scapulae of Balb/c-nu mice. After tumor formation, the mice were orally administered to evaluate the in vivo drug efficacy of different test compounds.
The NCI-H358 cells were subjected to monolayer in vitro culture. The culture conditions were as follows: 10% fetal bovine serum was added into the RPMI 1640 medium, and the cells were cultured in an incubator at 37° C. in air containing 5% CO2. The cells were digested twice/trice a week with pancreatin-EDTA for passaging. When the cells were in exponential growth phase, the cells were harvested, counted, and inoculated.
Before inoculated with tumor cells, the experimental mice were identified sequentially with numbered ear spikes specific to mice.
Every of the mice were subcutaneously inoculated with 1×10^6 NCI-H358 cells (suspended in 0.1 ml PBS+Matrigel Matrix) into the right scapulae. It was predicted that the mean tumor volume on Day 7 would be ˜200 mm^3. Based on the measurement results on Day 7, thirty mice with regular shapes and uniform volumes of tumor were screened, randomly divided into 5 groups and administered according to the experimental scheme (the dosing regimen was as shown in Table 10 (lasting for 21 days)). The vehicle was 5% DMSO+5% Solutol+90% H2O.
Mice were weighed and tumor volumes were measured trice a week, and the data were recorded. The tumor volume (V) was calculated by the following equation: V=½×a×b^2, wherein a and b indicated the length and width, respectively.
as §1
If the tumor was smaller than its initial volume, i.e., Vt<V0, it was defined as partial regression (PR) of the tumor. If the tumor disappeared completely, it was defined as complete regression (CR) of the tumor.

Data set [5] addresses T1, EGFR (ErbB1) T790M L858R (Homo sapiens, UniProt P00533, L858R/T790M).
T1 construct: purchased ThermoFisher USA (contract testing)
Kind of data set: Kinase selectivity test (ThermoFisher). In kind it is biochemical. Here is the method: Test Example 11: Kinase Selectivity Test
1. Experimental Purpose: Tests for selectivity of the compounds of the present disclosure for a plurality of kinases were carried out to assess the safety risk of the compounds of the present disclosure.
2. Test institution: ThermoFisher USA
3. Testing methods: LanthaScreen binding, Z′-LYTE, Adapta
4. Test targets: 100 targets in total

Where [6] appears, read: mouse, whole blood (TNO-155: plasma), female Balb/c mice, PO, 10 mg/kg, blood (TNO-155: plasma).
The mark [7] stands for this setting: mouse, in vivo, female Balb/c mice, PO, 10 mg/kg, blood (TNO-155: plasma).
[8] abbreviates: oral administration for 21 consecutive days.

We go through two compounds from US20230212180A1, “SUBSTITUTED PYRAZINE COMPOUND, PHARMACEUTICAL COMPOSITION COMPRISING SAME, AND USE THEREOF” (Sichuan Kelun-Biotech Biopharmaceutical Co., Ltd., priority 2020, published 2023).

T1 sequence (P00533 25-1210 T790M/L858R): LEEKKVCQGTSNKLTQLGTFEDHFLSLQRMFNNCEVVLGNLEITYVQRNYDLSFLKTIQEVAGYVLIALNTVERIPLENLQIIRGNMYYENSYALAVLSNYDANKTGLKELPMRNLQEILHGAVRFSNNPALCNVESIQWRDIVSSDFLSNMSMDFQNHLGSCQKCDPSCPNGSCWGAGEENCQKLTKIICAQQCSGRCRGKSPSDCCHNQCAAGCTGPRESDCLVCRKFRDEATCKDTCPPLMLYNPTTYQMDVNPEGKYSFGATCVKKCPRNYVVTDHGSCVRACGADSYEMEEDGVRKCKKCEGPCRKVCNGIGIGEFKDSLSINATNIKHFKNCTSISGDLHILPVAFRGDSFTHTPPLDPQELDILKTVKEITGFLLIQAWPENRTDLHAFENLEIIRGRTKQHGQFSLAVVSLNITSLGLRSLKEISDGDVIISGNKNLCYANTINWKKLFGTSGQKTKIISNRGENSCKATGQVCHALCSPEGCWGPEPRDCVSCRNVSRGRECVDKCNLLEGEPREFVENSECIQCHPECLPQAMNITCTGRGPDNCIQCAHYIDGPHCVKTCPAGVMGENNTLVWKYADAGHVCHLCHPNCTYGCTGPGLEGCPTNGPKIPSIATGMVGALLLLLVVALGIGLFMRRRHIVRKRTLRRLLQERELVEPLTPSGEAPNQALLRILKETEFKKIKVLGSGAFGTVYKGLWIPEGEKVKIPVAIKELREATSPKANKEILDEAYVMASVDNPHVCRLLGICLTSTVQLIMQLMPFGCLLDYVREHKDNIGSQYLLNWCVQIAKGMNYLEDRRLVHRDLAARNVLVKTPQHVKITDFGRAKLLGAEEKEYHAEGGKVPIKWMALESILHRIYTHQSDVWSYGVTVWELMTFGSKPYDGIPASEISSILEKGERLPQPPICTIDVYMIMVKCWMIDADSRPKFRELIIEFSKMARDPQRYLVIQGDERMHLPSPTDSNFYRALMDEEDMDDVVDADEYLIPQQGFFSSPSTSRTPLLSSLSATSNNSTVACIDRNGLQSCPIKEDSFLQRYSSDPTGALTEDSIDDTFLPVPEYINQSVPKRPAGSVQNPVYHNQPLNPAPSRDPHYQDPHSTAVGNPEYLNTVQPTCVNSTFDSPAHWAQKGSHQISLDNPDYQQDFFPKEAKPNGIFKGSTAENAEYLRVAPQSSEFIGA

On to `C[C@@H]1OCC2(CCN(c3cnc(Sc4ccnc(N)c4Cl)c(N)n3)CC2)[C@@H]1N` [TNO-155, reference compound], for which, in data set [1] (female Balb/c mice, IV, 1 mg/kg, blood (TNO-155: plasma)), the Cl was 24 mL/min/kg. In addition, the AUC(0-t) in data set [1] (mouse, whole blood (TNO-155: plasma), female Balb/c mice, IV, 1 mg/kg, blood (TNO-155: plasma)) was 672 ng·h/mL; in data set [1] (setting [6]), 7910 ng·h/mL; in data set [2] (IV, 0.5 mg/kg) it was 2350 ng·h/mL; in data set [2] (PO, 2.5 mg/kg) it was 10100 ng·h/mL. In addition, the half-life in data set [1] (setting [6]) was 1.69 h; in data set [2] (PO, 2.5 mg/kg), 13.2 h. Further, the clearance in data set [2] (IV, 0.5 mg/kg) was determined as 3.43 mL/min/kg. The “TGI (%) (calculated by the tumor volume)” value in data set [3] (10 mpk) is reported as 55.49%; in data set [3] (30 mpk), 72.74%; in data set [4] (5 mpk/BID) it was 68.59%; in data set [4] (10 mpk/QD), 58.49%. Besides, the “Inhibition (%) Target 1” value in data set [5] came to 81%. For the same compound, the “Inhibition (%) Target 2” value in data set [5] is recorded as 77%. Also, the “Inhibition (%) Mean value” in data set [5] is reported as 79%.

As to `C[C@@H]1OCC2(CCN(c3ncc(Sc4ccnc(N5CC(C(C)(C)O)C5)c4Cl)nc3CO)CC2)[C@@H]1N` [Example 12, 2-(1-(4-(5-((3S,4S)-4-amino-3-methyl-2-oxa-8-azaspiro[4.5]decan-8-yl)-6-(hydroxymethyl)pyrazin-2-ylthio)-3-chloropyridin-2-yl)azetidin-3-yl)propan-2-ol], the “pharmacokinetic properties (in words)” value in data set [1] (Balb/c mice, 1 mg/kg by injection and 10 mg/Kg by mouth) is “excellent pharmacokinetic properties”; in data set [2] (beagle dog, 0.5 mg/kg by injection and 2.5 mg/Kg by mouth), “excellent pharmacokinetic properties”. Moreover, the AUC(0-t) in data set [1] (mouse, in vivo, female Balb/c mice, IV, 1 mg/kg, blood (TNO-155: plasma)) amounted to 2590 ng·h/mL; in data set [1] (setting [7]), 12300 ng·h/mL; in data set [2] (in vivo, IV, 0.5 mg/kg) it was 3090 ng·h/mL; in data set [2] (in vivo, PO, 2.5 mg/kg), 11000 ng·h/mL. Besides, the clearance in data set [1] (mouse, in vivo, female Balb/c mice, IV, 1 mg/kg, blood (TNO-155: plasma), read-out: Cl) stood at 6.23 mL/min/kg; in data set [2] (in vivo, IV, 0.5 mg/kg) it was 2.31 mL/min/kg. Also, the half-life in data set [1] (setting [7]) is 7.13 h; in data set [2] (in vivo, PO, 2.5 mg/kg), 24.5 h. Further, the “TGI (%) (calculated by the tumor volume)” value in data set [3] (10 mpk) is recorded as 81.28%; in data set [3] (30 mpk) it was 96.93%; in data set [4] (3 mpk/QD), 84.35%; in data set [4] (10 mpk/QD), 93.14%. Further, the “tumor inhibitory effect (in words)” value in data set [3] (setting [8]) and in data set [4] (setting [8]) was “remarkable tumor inhibitory effect” each time. In data set [5], the “Inhibition (%) Target 1” value is recorded as 0%. For the same compound, the “Inhibition (%) Target 2” value in data set [5] amounted to 5%. Besides, in data set [5], the “Inhibition (%) Mean value” was 2%.
